# In US20220281848A1, “PYRAZOLE-SUBSTITUTED PYRROLIDINONES AS HERBICIDES” (FMC Corporation, priority 2019, published 2022):
# Tested on: plants
# Experiment: Test D post-emergence, other plants of Tables D2 and D4
# Type: in vivo
# Conditions: for damage to plant (100=total damage to plant; 0=no damage to plant), ABUTH / damage to plant (100=total damage to plant; 0=no damage to plant), AMARE / damage to plant (100=total damage to plant; 0=no damage to plant), BIDPI / damage to plant (100=total damage to plant; 0=no damage to plant), BRAPL / damage to plant (100=total damage to plant; 0=no damage to plant), CYPES / damage to plant (100=total damage to plant; 0=no damage to plant), DIGSA / damage to plant (100=total damage to plant; 0=no damage to plant), ECHCG / damage to plant (100=total damage to plant; 0=no damage to plant), ELEIN / damage to plant (100=total damage to plant; 0=no damage to plant), EPHHL / damage to plant (100=total damage to plant; 0=no damage to plant), GLXMA / damage to plant (100=total damage to plant; 0=no damage to plant), IPOHE / damage to plant (100=total damage to plant; 0=no damage to plant), ORYSA / damage to plant (100=total damage to plant; 0=no damage to plant), PANMI / damage to plant (100=total damage to plant; 0=no damage to plant), SETFA / damage to plant (100=total damage to plant; 0=no damage to plant), SORVU: post-emergence
# Procedure, shortened: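 Seeds treated with herbicide safener; sown in soil; glasshouse, 16 h light, 65% humidity. Sprayed day 1 (pre) or ~day 12 (post). Spray in 0.2% v/v adjuvant. Scored 0–100 damage: 20 DAA pre, 15 d post.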
# [1] = "Cereals" Postemergent, Rates 130, evaluated after 15 d
# [2] = "Cereals" Postemergent, Rates 250, evaluated after 15 d
# [3] = "Cereals" Postemergent, Rates 500, evaluated after 15 d
smiles,measurement,setting,value
COc1c(F)cccc1NC(=O)C1C(=O)N(C)CC1c1cc(C(F)(F)F)n(C)n1 (racemic) [Compound 18],SINAR damage rating (100=total damage to plant; 0=no damage to plant),"SINAR, ""Cereals"" Postemergent, Rates 500, evaluated after 15 d",40
same,STEME damage rating (100=total damage to plant; 0=no damage to plant),[1],0
same,STEME damage rating (100=total damage to plant; 0=no damage to plant),[2],0
same,STEME damage rating (100=total damage to plant; 0=no damage to plant),[3],20
same,VERPE damage rating (100=total damage to plant; 0=no damage to plant),[1],0
same,VERPE damage rating (100=total damage to plant; 0=no damage to plant),[2],0
same,VERPE damage rating (100=total damage to plant; 0=no damage to plant),[3],40
same,"damage to plant (100=total damage to plant; 0=no damage to plant), ABUTH","rate 130, evaluated after 15 d",0
same,"damage to plant (100=total damage to plant; 0=no damage to plant), ABUTH","rate 250, evaluated after 15 d",0
same,"damage to plant (100=total damage to plant; 0=no damage to plant), ABUTH","rate 500, evaluated after 15 d",30
same,"damage to plant (100=total damage to plant; 0=no damage to plant), AMARE","rate 130, evaluated after 15 d",0
same,"damage to plant (100=total damage to plant; 0=no damage to plant), AMARE","rate 250, evaluated after 15 d",10
same,"damage to plant (100=total damage to plant; 0=no damage to plant), AMARE","rate 500, evaluated after 15 d",20
same,"damage to plant (100=total damage to plant; 0=no damage to plant), BIDPI","rate 130, evaluated after 15 d",0
same,"damage to plant (100=total damage to plant; 0=no damage to plant), BIDPI","rate 250, evaluated after 15 d",0
same,"damage to plant (100=total damage to plant; 0=no damage to plant), BIDPI","rate 500, evaluated after 15 d",20
same,"damage to plant (100=total damage to plant; 0=no damage to plant), BRAPL","rate 130, evaluated after 15 d",60
same,"damage to plant (100=total damage to plant; 0=no damage to plant), BRAPL","rate 250, evaluated after 15 d",70
same,"damage to plant (100=total damage to plant; 0=no damage to plant), BRAPL","rate 500, evaluated after 15 d",80
same,"damage to plant (100=total damage to plant; 0=no damage to plant), CYPES","rate 130, evaluated after 15 d",0
same,"damage to plant (100=total damage to plant; 0=no damage to plant), CYPES","rate 250, evaluated after 15 d",0
same,"damage to plant (100=total damage to plant; 0=no damage to plant), CYPES","rate 500, evaluated after 15 d",0
same,"damage to plant (100=total damage to plant; 0=no damage to plant), DIGSA","rate 130, evaluated after 15 d",30
same,"damage to plant (100=total damage to plant; 0=no damage to plant), DIGSA","rate 250, evaluated after 15 d",60
same,"damage to plant (100=total damage to plant; 0=no damage to plant), DIGSA","rate 500, evaluated after 15 d",70
same,"damage to plant (100=total damage to plant; 0=no damage to plant), ECHCG","rate 130, evaluated after 15 d",0
same,"damage to plant (100=total damage to plant; 0=no damage to plant), ECHCG","rate 250, evaluated after 15 d",60
same,"damage to plant (100=total damage to plant; 0=no damage to plant), ECHCG","rate 500, evaluated after 15 d",70
same,"damage to plant (100=total damage to plant; 0=no damage to plant), ELEIN","rate 130, evaluated after 15 d",0
same,"damage to plant (100=total damage to plant; 0=no damage to plant), ELEIN","rate 250, evaluated after 15 d",0
same,"damage to plant (100=total damage to plant; 0=no damage to plant), ELEIN","rate 500, evaluated after 15 d",0
same,"damage to plant (100=total damage to plant; 0=no damage to plant), EPHHL","rate 130, evaluated after 15 d",0
same,"damage to plant (100=total damage to plant; 0=no damage to plant), EPHHL","rate 250, evaluated after 15 d",10
same,"damage to plant (100=total damage to plant; 0=no damage to plant), EPHHL","rate 500, evaluated after 15 d",20
same,"damage to plant (100=total damage to plant; 0=no damage to plant), GLXMA","rate 130, evaluated after 15 d",0
same,"damage to plant (100=total damage to plant; 0=no damage to plant), GLXMA","rate 250, evaluated after 15 d",0
same,"damage to plant (100=total damage to plant; 0=no damage to plant), GLXMA","rate 500, evaluated after 15 d",0
same,"damage to plant (100=total damage to plant; 0=no damage to plant), IPOHE","rate 130, evaluated after 15 d",0
same,"damage to plant (100=total damage to plant; 0=no damage to plant), IPOHE","rate 250, evaluated after 15 d",20
same,"damage to plant (100=total damage to plant; 0=no damage to plant), IPOHE","rate 500, evaluated after 15 d",30
same,"damage to plant (100=total damage to plant; 0=no damage to plant), ORYSA","rate 130, evaluated after 15 d",0
same,"damage to plant (100=total damage to plant; 0=no damage to plant), ORYSA","rate 250, evaluated after 15 d",0
same,"damage to plant (100=total damage to plant; 0=no damage to plant), ORYSA","rate 500, evaluated after 15 d",0
same,"damage to plant (100=total damage to plant; 0=no damage to plant), PANMI","rate 130, evaluated after 15 d",0
same,"damage to plant (100=total damage to plant; 0=no damage to plant), PANMI","rate 250, evaluated after 15 d",10
same,"damage to plant (100=total damage to plant; 0=no damage to plant), PANMI","rate 500, evaluated after 15 d",10
same,"damage to plant (100=total damage to plant; 0=no damage to plant), SETFA","rate 130, evaluated after 15 d",0
same,"damage to plant (100=total damage to plant; 0=no damage to plant), SETFA","rate 250, evaluated after 15 d",30
same,"damage to plant (100=total damage to plant; 0=no damage to plant), SETFA","rate 500, evaluated after 15 d",70
same,"damage to plant (100=total damage to plant; 0=no damage to plant), SORVU","rate 130, evaluated after 15 d",0
same,"damage to plant (100=total damage to plant; 0=no damage to plant), SORVU","rate 250, evaluated after 15 d",0
same,"damage to plant (100=total damage to plant; 0=no damage to plant), SORVU","rate 500, evaluated after 15 d",0
